The values below come from patent US20240408088A1, “PYRAZOLE DERIVATIVE, AND PREPARATION METHOD THEREFOR AND USE THEREOF IN MEDICINE” (Abbisko Therapeutics Co., Ltd., priority 2021, published 2024).

The subject of test [1] is HCT 116 MTAP knockout cells. The test can be described thus: Human colon cancer HCT116 cell proliferation inhibition test (MTAP knockout cells, CellTiter-Glo, 6 days). The note with it: Homo sapiens, HCT-116, 144 h. The format is cell-based. How it is done:
(§1) • 1. HCT 116 MTAP knockout and MTAP wild-type cells were plated in 96-well flat bottom 5 plates, and cultured overnight with McCoy's 5A medium containing […]+1% penicillin-streptomycin at 37° C. and 5% CO2. • 2. On the next day, the compound was dissolved with DMSO, diluted with DMSO and medium successively and transferred to the cell plate. The final concentration of the compound was 10 μM, the compound was diluted 4 times, with 9 concentration gradients, and DMSO control was added. • 3. Cells that have not been treated with the compound were removed. CellTiter-Glo Luminescent Cell Viability Assay (Promega) was used to detect cell viability, the operation was performed with reference to the package insert of the kit, and then the cell plate was placed on EnVision Multilabel Reader to detect the cold light signal. • 4. Meanwhile, the cell plate treated with the compound was cultured at 37° C. and 5% CO2 for 6 consecutive days. • 5. Then, CellTiter-Glo was also used to detect cell viability. • 6. Finally, the four-parameter dose-response curve module of GraphPad Prism v 9.2.0 software was used to plot the dose-response curve and calculate the IC50 for proliferation inhibition (unit: nM).
(In general: In ATP-based viability assays light output follows the ATP content of the culture.)

Test [2] has as its system HCT 116 MTAP wild-type cells. Briefly: Human colon cancer HCT116 cell proliferation inhibition test (MTAP wild-type cells, CellTiter-Glo, 6 days). The test is classed as cell-based. The note with it: HCT-116, 144 h. How it is done:
as §1

In the case of `Cn1ncc(-c2ccc3c(=O)[nH]nc(CN)c3c2)c1-c1c(F)c(Cl)cc(N2CC(C)(F)C2)c1C#N` [Example 18, 2-(4-(4-(aminomethyl)-1-oxo-1,2-dihydrophthalazin-6-yl)-1-methyl-1H-pyrazol-5-yl)-4-chloro-3-fluoro-6-(3-fluoro-3-methylazetidin-1-yl)benzonitrile], the 50% inhibitory concentration (IC50) in test [1] came out at 123 nM; in test [2] it was 5600 nM.
The matching figures for `Cn1ncc(-c2ccc3c(=O)[nH]nc(CN)c3c2)c1-c1c(F)c(Cl)cc(N2CCC(F)(F)C2)c1C#N` [Example 19, 2-(4-(4-(aminomethyl)-1-oxo-1,2-dihydrophthalazin-6-yl)-1-methyl-1H-pyrazol-5-yl)-4-chloro-6-(3,3-difluoropyrrolidin-1-yl)-3-fluorobenzonitrile]: 80 nM and 3260 nM.
For `COC1CN(c2cc(OC3CC3)c(C#N)c(-c3c(-c4ccc5c(=O)[nH]nc(CN)c5c4)cnn3C)c2F)C1` [Example 23, 2-(4-(4-(aminomethyl)-1-oxo-1,2-dihydrophthalazin-6-yl)-1-methyl-1H-pyrazol-5-yl)-6-cyclopropoxy-3-fluoro-4-(3-methoxyazetidin-1-yl)benzonitrile] the same measures were 120 nM and 3660 nM.
As to `COC1CCN(c2cc(OC3CC3)c(C#N)c(-c3c(-c4ccc5c(=O)[nH]nc(CN)c5c4)cnn3C)c2F)C1` (stereo not drawn) [Example 26, 2-(4-(4-(aminomethyl)-1-oxo-1,2-dihydrophthalazin-6-yl)-1-methyl-1H-pyrazol-5-yl)-6-cyclopropoxy-3-fluoro-4-(3-methoxypyrrolidin-1-yl)benzonitrile], the results for the IC50 in test [1] and in test [2] were 34 nM and 2490 nM, respectively.
On to `Cn1ncc(-c2ccc3c(=O)[nH]nc(CN)c3c2)c1-c1c(F)c(Cl)cc(N2CC3(C2)CC3(F)F)c1C#N` [Example 29, 2-(4-(4-(aminomethyl)-1-oxo-1,2-dihydrophthalazin-6-yl)-1-methyl-1H-pyrazol-5-yl)-4-chloro-6-(1,1-difluoro-5-azaspiro[2.3]hexan-5-yl)-3-fluorobenzonitrile], for which the concentration for half-maximal inhibition (IC50) was 20 nM in test [1] and 1150 nM in test [2].
For `Cn1ncc(-c2ccc3c(=O)[nH]nc(CN)c3c2)c1-c1c(F)c(Cl)cc(N2CC(C(F)F)C2)c1C#N` [Example 30, 2-(4-(4-(aminomethyl)-1-oxo-1,2-dihydrophthalazin-6-yl)-1-methyl-1H-pyrazol-5-yl)-4-chloro-6-(3-(difluoromethyl)azetidin-1-yl)-3-fluorobenzonitrile] the same measures were 44 nM and 2660 nM.

In general, IC50 refers to the point on the concentration scale where inhibition reaches its midpoint. A lower IC50 goes with greater potency.
